# PMC3653315 (Biomolecular NMR assignments, 2011)
# Target: Ssu72 (dSsu72) (Drosophila melanogaster, UniProt Q9VWE4)
# Conditions: 25 mM Tris-HCl, 25 mM KCl, 2 mM dithiothreitol, 5% D2O, 30 °C; phosphate up to 25:1 molar ratio; active site loop
# Chain of Ssu72 (dSsu72) (Q9VWE4 1-195): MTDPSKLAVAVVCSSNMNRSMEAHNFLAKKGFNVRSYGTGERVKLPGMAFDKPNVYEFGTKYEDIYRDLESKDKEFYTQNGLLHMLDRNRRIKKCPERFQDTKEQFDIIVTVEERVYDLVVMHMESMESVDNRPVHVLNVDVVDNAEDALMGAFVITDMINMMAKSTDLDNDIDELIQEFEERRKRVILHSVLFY
smiles,measurement,value
O=P(O)(O)O [inorganic phosphate],"NMR titration, 1H/15N-HSQC-TROSY chemical shift perturbation",large number of significant perturbations upon titration of wild-type Ssu72 with inorganic phosphate
